The numbers were not newly measured in patent publication US11872266B2, “Rapid-acting insulin compositions” (Eli Lilly and Company, priority 2014, dated 2024), which cites them from elsewhere.

The conditions of this series: on a molar basis.

As for “28^B-L-Lysine-29^B-L-proline human insulin [Insulin lispro]”, the “Potency relative to human insulin” value was “equipotent to human insulin”.
